Key:
Test in all cases: combination Emax (second highest fraction inhibited in the dose matrix, 72 h); higher = more inhibition; extreme values may be limits of the assay
NCI-H28 (Mesothelioma) = test system: NCI-H28 (Mesothelioma)
In short: (§1)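 Cell lines grown in DMEM/F12 or RPMI with 10% FBS were plated in 1536-well plates and held 24 hours at 37°C, 5% CO2 before 72 hours of exposure to two-drug dose matrices, with DMSO typically at 0.2%. CellTiter-Glo 2.0 luminescence gave viability, which was converted to inhibition. Vehicle wells were set to 0 and blank wells to 1. Combination Emax is the second-highest inhibition in the matrix, and Bliss excess is the observed combination effect minus the expected EA + EB − EA·EB, where EA and EB are the single-agent effects.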

[1] = test system: CAPAN-1 (Pancreatic Carcinoma)
In short: as §1

[2] = test system: LB771-HNC (Head and Neck Carcinoma)
In short: as §1

HMV-II (Melanoma) = test system: HMV-II (Melanoma)
In short: as §1

[3] = test system: Hs-633T (Other Solid Carcinomas)
In short: as §1

[4] = test system: CTB-1 (B-Cell Non-Hodgkin's Lymphoma)
In short: as §1

[5] = test system: OVCAR-8 (Ovarian Carcinoma)
In short: as §1

[6] = test system: K5 (Thyroid Gland Carcinoma)
In short: as §1

[7] = test system: KYSE-410 (Esophageal Squamous Cell Carcinoma)
In short: as §1

[8] = test system: MDA-MB-468 (Breast Carcinoma)
In short: as §1

[9] = test system: KARPAS-231 (B-Cell Non-Hodgkin's Lymphoma)
In short: as §1

[10] = test system: HO-1-u-1 (Oral Cavity Carcinoma)
In short: as §1

[11] = test system: LU-139 (Small Cell Lung Carcinoma)
In short: as §1

[12] = test system: SW1116 (Colorectal Carcinoma)
In short: as §1

[13] = test system: SW626 (Colorectal Carcinoma)
In short: as §1

[14] = test system: HDLM-2 (Hodgkin's Lymphoma)
In short: as §1

[15] = test system: TE-4 (Esophageal Squamous Cell Carcinoma)
In short: as §1

[16] = test system: MHH-PREB-1 (B-Cell Non-Hodgkin's Lymphoma)
In short: as §1

[17] = test system: OC-314 (Ovarian Carcinoma)
In short: as §1

Mewo (Melanoma) = test system: Mewo (Melanoma)
In short: as §1

SMILES	combination Emax (NCI-H28 (Mesothelioma))	combination Emax [1]	combination Emax [2]	combination Emax (HMV-II (Melanoma))	combination Emax [3]	combination Emax [4]	combination Emax [5]	combination Emax [6]	combination Emax [7]	combination Emax [8]	combination Emax [9]	combination Emax [10]	combination Emax [11]	combination Emax [12]	combination Emax [13]	combination Emax [14]	combination Emax [15]	combination Emax [16]	combination Emax [17]	combination Emax (Mewo (Melanoma))
C=CCn1c(=O)c2cnc(Nc3ccc(N4CCN(C)CC4)cc3)nc2n1-c1cccc(C(C)(C)O)n1 [AZD1775] + O=C(c1cc(Cc2n[nH]c(=O)c3ccccc23)ccc1F)N1CCN(C(=O)C2CC2)CC1 [Olaparib] (first compound max 1 µM, partner max 10 µM)	0.421	0.516	0.533	0.401	0.657	0.879	0.797	0.528	0.251	0.484	0.972	0.644	0.636	0.343	0.573	0.74	0.366	0.76	0.631	0.382
Cc1cc2ncnn2cc1Nc1ncc2c(n1)n(C1CCOCC1)c(=O)n2C [AZD7648] + CCN(CCO)CCCOc1ccc2c(Nc3cc(CC(=O)Nc4cccc(F)c4)[nH]n3)ncnc2c1 [AZD2811] (first compound max 10 µM, 7x7, partner max 1 µM)	0.345	0.299	0.251	0.37	0.431	0.697	0.311	0.571	0.187	0.492	0.517	0.449	0.397	0.249	0.25	0.345	0.137	0.343	0.477	0.259
CC1(C)CCC(CN2CCN(c3ccc(C(=O)NS(=O)(=O)c4ccc(NCC5CCOCC5)c([N+](=O)[O-])c4)c(Oc4cnc5[nH]ccc5c4)c3)CC2)=C(c2ccc(Cl)cc2)C1 [Venetoclax] + CN(C)CCCOc1ccc(-c2ccc3ncc4c(c3c2)n(C2CCOCC2)c(=O)n4C)cn1 [AZD0156] (first compound max 1 µM, 7x7, partner max 1 µM)	0.193	0.184	0.124	0.289	0.266	0.242	0.219	0.374	0.172	0.377	0.816	0.413	0.374	0.103	0.111	0.362	0.179	0.14	0.316	0.547
C=CCn1c(=O)c2cnc(Nc3ccc(N4CCN(C)CC4)cc3)nc2n1-c1cccc(C(C)(C)O)n1 [AZD1775] + C[C@@H]1COCCN1C2=NC(=NC(=C2)C3(CC3)[S@](=N)(=O)C)C4=C5C=CNC5=NC=C4 [AZD6738] (first compound max 1 µM, partner max 10 µM)	0.618	0.49	0.536	0.495	0.937	0.944	0.966	0.749	0.499	0.634	0.98	0.973	0.721	0.506	0.743	0.772	0.805	0.948	0.941	0.71
COc1cccc(OCCCN)c1-c1cc(Nc2cnc(C#N)cn2)n[nH]1 [Prexasertib] + C[C@@H]1COCCN1C2=NC(=NC(=C2)C3(CC3)[S@](=N)(=O)C)C4=C5C=CNC5=NC=C4 [AZD6738] (first compound max 1 µM, 7x7, partner max 10 µM)	0.592	0.527	0.61	0.565	0.936	0.899	0.991	0.7	0.532	0.547	0.979	0.923	0.598	0.615	0.743	0.528	0.652	0.949	0.934	0.479
Cc1cc2ncnn2cc1Nc1ncc2c(n1)n(C1CCOCC1)c(=O)n2C [AZD7648] + C[C@@H]1COCCN1C2=NC(=NC(=C2)C3(CC3)[S@](=N)(=O)C)C4=C5C=CNC5=NC=C4 [AZD6738] (first compound max 10 µM, 7x7, partner max 10 µM)	0.538	0.495	0.464	0.442	0.855	0.802	0.71	0.665	0.363	0.513	0.837	0.845	0.396	0.267	0.619	0.373	0.531	0.863	0.905	0.5
CN(C)CCCOc1ccc(-c2ccc3ncc4c(c3c2)n(C2CCOCC2)c(=O)n4C)cn1 [AZD0156] + C[C@@H]1COCCN1C2=NC(=NC(=C2)C3(CC3)[S@](=N)(=O)C)C4=C5C=CNC5=NC=C4 [AZD6738] (first compound max 1 µM, 7x7, partner max 10 µM)	0.452	0.368	0.48	0.335	0.925	0.829	0.88	0.753	0.297	0.527	0.904	0.943	0.278	0.28	0.566	0.376	0.604	0.909	0.869	0.594
COc1cccc(OCCCN)c1-c1cc(Nc2cnc(C#N)cn2)n[nH]1 [Prexasertib] + O=C(c1cc(Cc2n[nH]c(=O)c3ccccc23)ccc1F)N1CCN(C(=O)C2CC2)CC1 [Olaparib] (first compound max 1 µM, 7x7, partner max 10 µM)	0.597	0.595	0.568	0.533	0.854	0.876	0.966	0.634	0.382	0.603	0.974	0.936	0.442	0.565	0.64	0.626	0.654	0.866	0.971	0.505
CCN(CCO)CCCOc1ccc2c(Nc3cc(CC(=O)Nc4cccc(F)c4)[nH]n3)ncnc2c1 [AZD2811] + O=C(c1cc(Cc2n[nH]c(=O)c3ccccc23)ccc1F)N1CCN(C(=O)C2CC2)CC1 [Olaparib] (first compound max 1 µM, 7x7, partner max 10 µM)	0.229	0.338	0.201	0.203	0.441	0.515	0.367	0.329	0.165	0.413	0.576	0.274	0.307	0.223	0.213	0.258	0.145	0.125	0.487	0.226
Cc1c2c(nn1C)CSCc1cc(n(C)n1)CSc1cc(c3ccccc3c1)OCCCc1c(C(=O)O)n(C)c3c-2c(Cl)ccc13 [AZD5991] + CCN(CCO)CCCOc1ccc2c(Nc3cc(CC(=O)Nc4cccc(F)c4)[nH]n3)ncnc2c1 [AZD2811] (first compound max 1 µM, 7x7, partner max 1 µM)	0.342	0.206	0.591	0.4	0.421	0.641	0.42	0.298	0.265	0.738	1	0.657	0.409	0.256	0.325	0.978	0.575	0.144	0.449	0.366
CC(=O)Nc1cccc(-n2c(=O)n(C3CC3)c(=O)c3c(Nc4ccc(I)cc4F)n(C)c(=O)c(C)c32)c1 [Trametinib] + Cc1nc(-c2cn3c(n2)-c2ccc(-c4cnn(C(C)(C)C(N)=O)c4)cc2OCC3)n(C(C)C)n1 [Taselisib] (first compound max 1 µM, 7x7, partner max 10 µM)	0.632	0.774	0.895	0.926	0.917	0.416	0.594	1	0.993	0.799	0.149	0.987	0.143	0.866	0.75	0.362	1	0.271	0.707	0.692
Cc1cc2ncnn2cc1Nc1ncc2c(n1)n(C1CCOCC1)c(=O)n2C [AZD7648] + O=C(c1cc(Cc2n[nH]c(=O)c3ccccc23)ccc1F)N1CCN(C(=O)C2CC2)CC1 [Olaparib] (first compound max 10 µM, 7x7, partner max 10 µM)	0.131	0.237	0.148	0.252	0.313	0.331	0.344	0.421	0.141	0.242	0.269	0.261	0.131	0.0602	0.13	0.155	0.167	0.232	0.24	0.138
Cc1c2c(nn1C)CSCc1cc(n(C)n1)CSc1cc(c3ccccc3c1)OCCCc1c(C(=O)O)n(C)c3c-2c(Cl)ccc13 [AZD5991] + C[C@@H](Nc1cc(F)cc(F)c1)c1cc(C(=O)N(C)C)cc2c(=O)cc(N3CCOCC3)oc12 [AZD8186] (first compound max 1 µM, 7x7, partner max 3 µM)	0.298	0.172	0.486	0.192	0.268	0.384	0.268	0.362	0.221	0.605	1	0.279	0.174	0.17	0.223	0.996	0.377	0.214	0.297	0.314
